Assay results published in ChEMBL document CHEMBL3525898, “Pharmacogenomics of gemcitabine metabolism: functional analysis of genetic variants in cytidine deaminase and deoxycytidine kinase” (Drug Metab Dispos, 2013).

Tests used:
Assay type in all cases: ADME
[1] = Activity of human recombinant N-terminal His-tagged DCK Ile24Val mutant expressed in Escherichia coli BL21(DE3) cells assessed as cytosine-beta-D-arabinofuranoside-5'-MP formation incubated for 3 mins by liquid chromatography-tandem mass spectrometry; details: 0.05 h
[2] = Activity of human recombinant N-terminal His-tagged DCK Pro122Ser mutant expressed in Escherichia coli BL21(DE3) cells assessed as cytosine-beta-D-arabinofuranoside-5'-MP formation incubated for 3 mins by liquid chromatography-tandem mass spectrometry; details: 0.05 h
[3] = Activity of human recombinant N-terminal His-tagged DCK Ala119Gly mutant expressed in Escherichia coli BL21(DE3) cells assessed as cytosine-beta-D-arabinofuranoside-5'-MP formation incubated for 3 mins by liquid chromatography-tandem mass spectrometry; details: 0.05 h
[4] = Drug metabolism assessed as […] incubated for 1 min in presence of human recombinant N-terminal His-tagged DCK Pro122Ser mutant expressed in Escherichia coli BL21(DE3) cells by liquid chromatography-tandem mass spectrometry
[5] = Drug metabolism assessed as […] incubated for 1 min in presence of human recombinant N-terminal His-tagged DCK Ile24Val mutant expressed in Escherichia coli BL21(DE3) cells by liquid chromatography-tandem mass spectrometry
[6] = Drug metabolism assessed as […] incubated for 1 min in presence of human recombinant N-terminal His-tagged DCK Ala119Gly mutant expressed in Escherichia coli BL21(DE3) cells by liquid chromatography-tandem mass spectrometry
[7] = Ratio of intrinsic clearance for human recombinant N-terminal His-tagged DCK Ile24Val mutant expressed in Escherichia coli BL21(DE3) cells to intrisic clerance for human recombinant N-terminal His-tagged wild type DCK expressed in Escherichia coli BL21(DE3) cells

Compound | Km [1] [µM] | Vmax [1] [nmol/min/mg] | Km [2] [µM] | Vmax [2] [nmol/min/mg] | Km [3] [µM] | Vmax [3] [nmol/min/mg] | Km [4] [µM] | Vmax [4] [nmol/min/mg] | Km [5] [µM] | Vmax [5] [nmol/min/mg] | Km [6] [µM] | Vmax [6] [nmol/min/mg] | Ratio [7]
Nc1ccn([C@@H]2O[C@H](CO)[C@@H](O)[C@@H]2O)c(=O)n1 [CYTARABINE] | 2.45 | 599.4 | 1.56 | 264 | 2.54 | 580.3 | – | – | – | – | – | – | –
Nc1ccn([C@@H]2O[C@H](CO)[C@@H](O)C2(F)F)c(=O)n1 [GEMCITABINE] | – | – | – | – | – | – | 1.43 | 573.2 | 1.52 | 1234 | 1.75 | 828.1 | 2
